Results: the NIST ThermoML archive (doi:10.1016/j.fluid.2015.03.015)
Values joined by “and” are separate entries in the source; they are usually repeats but may differ in a detail not shown here. Equal entries are not always repeated. Numbers after ± are expanded uncertainties.

Test: refractive index (other wavelength) (dimensionless); xn = mol fraction of the nth substance listed

CCCCCCCC[n+]1ccn(C)c1.F[B-](F)(F)F [1-methyl-3-octylimidazolium tetrafluoroborate] + CCCCCCCO
Minimum deviation
Settings | refractive index
298.87 K, Liquid mixture 1, Wavelength=623.8 nm, x1 = 0.01 | 1.4213 ± 0.0003
298.87 K, Liquid mixture 2, Wavelength=623.8 nm, x1 = 0.382 | 1.4264 ± 0.0003
299.67 K, Liquid mixture 1, Wavelength=623.8 nm, x1 = 0.011 | 1.421 ± 0.0003
299.67 K, Liquid mixture 2, Wavelength=623.8 nm, x1 = 0.371 | 1.426 ± 0.0003
300.45 K, Liquid mixture 1, Wavelength=623.8 nm, x1 = 0.011 | 1.4207 ± 0.0003
300.45 K, Liquid mixture 2, Wavelength=623.8 nm, x1 = 0.359 | 1.4256 ± 0.0003
301.2 K, Liquid mixture 1, Wavelength=623.8 nm, x1 = 0.016 | 1.4205 ± 0.0003
301.2 K, Liquid mixture 2, Wavelength=623.8 nm, x1 = 0.347 | 1.4252 ± 0.0003
301.93 K, Liquid mixture 1, Wavelength=623.8 nm, x1 = 0.015 | 1.4202 ± 0.0003
301.93 K, Liquid mixture 2, Wavelength=623.8 nm, x1 = 0.335 | 1.4248 ± 0.0003
302.63 K, Liquid mixture 1, Wavelength=623.8 nm, x1 = 0.019 | 1.42 ± 0.0003
302.63 K, Liquid mixture 2, Wavelength=623.8 nm, x1 = 0.33 | 1.4245 ± 0.0003
303.31 K, Liquid mixture 1, Wavelength=623.8 nm, x1 = 0.023 | 1.4198 ± 0.0003
303.31 K, Liquid mixture 2, Wavelength=623.8 nm, x1 = 0.317 | 1.4241 ± 0.0003
303.94 K, Liquid mixture 1, Wavelength=623.8 nm, x1 = 0.025 | 1.4196 ± 0.0003
303.94 K, Liquid mixture 2, Wavelength=623.8 nm, x1 = 0.302 | 1.4237 ± 0.0003
304.5 K, Liquid mixture 1, Wavelength=623.8 nm, x1 = 0.027 | 1.4194 ± 0.0003
304.5 K, Liquid mixture 2, Wavelength=623.8 nm, x1 = 0.294 | 1.4234 ± 0.0003
305 K, Liquid mixture 1, Wavelength=623.8 nm, x1 = 0.031 | 1.4193 ± 0.0003
305 K, Liquid mixture 2, Wavelength=623.8 nm, x1 = 0.284 | 1.4231 ± 0.0003
305.41 K, Liquid mixture 1, Wavelength=623.8 nm, x1 = 0.035 | 1.4192 ± 0.0003
305.41 K, Liquid mixture 2, Wavelength=623.8 nm, x1 = 0.272 | 1.4228 ± 0.0003
305.78 K, Liquid mixture 1, Wavelength=623.8 nm, x1 = 0.037 | 1.4191 ± 0.0003
305.78 K, Liquid mixture 2, Wavelength=623.8 nm, x1 = 0.259 | 1.4225 ± 0.0003
306.09 K, Liquid mixture 1, Wavelength=623.8 nm, x1 = 0.038 | 1.419 ± 0.0003
306.09 K, Liquid mixture 2, Wavelength=623.8 nm, x1 = 0.253 | 1.4223 ± 0.0003
306.34 K, Liquid mixture 1, Wavelength=623.8 nm, x1 = 0.043 | 1.419 ± 0.0003
306.34 K, Liquid mixture 2, Wavelength=623.8 nm, x1 = 0.244 | 1.4221 ± 0.0003
306.54 K, Liquid mixture 1, Wavelength=623.8 nm, x1 = 0.048 | 1.419 ± 0.0003
306.54 K, Liquid mixture 2, Wavelength=623.8 nm, x1 = 0.242 | 1.422 ± 0.0003
306.7 K, Liquid mixture 1, Wavelength=623.8 nm, x1 = 0.051 | 1.419 ± 0.0003
306.7 K, Liquid mixture 2, Wavelength=623.8 nm, x1 = 0.232 | 1.4218 ± 0.0003
306.83 K, Liquid mixture 1, Wavelength=623.8 nm, x1 = 0.06 | 1.4191 ± 0.0003
306.83 K, Liquid mixture 2, Wavelength=623.8 nm, x1 = 0.228 | 1.4217 ± 0.0003
306.93 K, Liquid mixture 1, Wavelength=623.8 nm, x1 = 0.062 | 1.4191 ± 0.0003
306.93 K, Liquid mixture 2, Wavelength=623.8 nm, x1 = 0.224 | 1.4216 ± 0.0003
307.02 K, Liquid mixture 1, Wavelength=623.8 nm, x1 = 0.064 | 1.4191 ± 0.0003
307.02 K, Liquid mixture 2, Wavelength=623.8 nm, x1 = 0.219 | 1.4215 ± 0.0003
307.1 K, Liquid mixture 1, Wavelength=623.8 nm, x1 = 0.071 | 1.4192 ± 0.0003
307.1 K, Liquid mixture 2, Wavelength=623.8 nm, x1 = 0.221 | 1.4215 ± 0.0003
307.16 K, Liquid mixture 1, Wavelength=623.8 nm, x1 = 0.073 | 1.4192 ± 0.0003
307.16 K, Liquid mixture 2, Wavelength=623.8 nm, x1 = 0.215 | 1.4214 ± 0.0003
307.21 K, Liquid mixture 1, Wavelength=623.8 nm, x1 = 0.08 | 1.4193 ± 0.0003
307.21 K, Liquid mixture 2, Wavelength=623.8 nm, x1 = 0.217 | 1.4214 ± 0.0003
307.26 K, Liquid mixture 1, Wavelength=623.8 nm, x1 = 0.081 | 1.4193 ± 0.0003
307.26 K, Liquid mixture 2, Wavelength=623.8 nm, x1 = 0.211 | 1.4213 ± 0.0003
307.3 K, Liquid mixture 1, Wavelength=623.8 nm, x1 = 0.081 | 1.4193 ± 0.0003
307.3 K, Liquid mixture 2, Wavelength=623.8 nm, x1 = 0.204 | 1.4212 ± 0.0003
307.33 K, Liquid mixture 1, Wavelength=623.8 nm, x1 = 0.082 | 1.4193 ± 0.0003
307.33 K, Liquid mixture 2, Wavelength=623.8 nm, x1 = 0.198 | 1.4211 ± 0.0003
307.36 K, Liquid mixture 1, Wavelength=623.8 nm, x1 = 0.089 | 1.4194 ± 0.0003
307.36 K, Liquid mixture 2, Wavelength=623.8 nm, x1 = 0.199 | 1.4211 ± 0.0003
307.39 K, Liquid mixture 1, Wavelength=623.8 nm, x1 = 0.089 | 1.4194 ± 0.0003
307.39 K, Liquid mixture 2, Wavelength=623.8 nm, x1 = 0.193 | 1.421 ± 0.0003
307.41 K, Liquid mixture 1, Wavelength=623.8 nm, x1 = 0.09 | 1.4194 ± 0.0003
307.41 K, Liquid mixture 2, Wavelength=623.8 nm, x1 = 0.186 | 1.4209 ± 0.0003
307.44 K, Liquid mixture 1, Wavelength=623.8 nm, x1 = 0.096 | 1.4195 ± 0.0003
307.44 K, Liquid mixture 2, Wavelength=623.8 nm, x1 = 0.187 | 1.4209 ± 0.0003
307.45 K, Liquid mixture 1, Wavelength=623.8 nm, x1 = 0.097 | 1.4195 ± 0.0003
307.45 K, Liquid mixture 2, Wavelength=623.8 nm, x1 = 0.18 | 1.4208 ± 0.0003
307.47 K, Liquid mixture 1, Wavelength=623.8 nm, x1 = 0.097 | 1.4195 ± 0.0003
307.47 K, Liquid mixture 2, Wavelength=623.8 nm, x1 = 0.181 | 1.4208 ± 0.0003
307.48 K, Liquid mixture 1, Wavelength=623.8 nm, x1 = 0.097 | 1.4195 ± 0.0003
307.48 K, Liquid mixture 2, Wavelength=623.8 nm, x1 = 0.174 | 1.4207 ± 0.0003
307.49 K, Liquid mixture 1, Wavelength=623.8 nm, x1 = 0.104 | 1.4196 ± 0.0003
307.49 K, Liquid mixture 2, Wavelength=623.8 nm, x1 = 0.175 | 1.4207 ± 0.0003
307.5 K, Liquid mixture 1, Wavelength=623.8 nm, x1 = 0.104 | 1.4196 ± 0.0003
307.5 K, Liquid mixture 2, Wavelength=623.8 nm, x1 = 0.168 | 1.4206 ± 0.0003
307.51 K, Liquid mixture 1, Wavelength=623.8 nm, x1 = 0.104 | 1.4196 ± 0.0003
307.51 K, Liquid mixture 2, Wavelength=623.8 nm, x1 = 0.168 | 1.4206 ± 0.0003
307.52 K, Liquid mixture 1, Wavelength=623.8 nm, x1 = 0.104 | 1.4196 ± 0.0003
307.52 K, Liquid mixture 1, Wavelength=623.8 nm, x1 = 0.111 | 1.4197 ± 0.0003
307.52 K, Liquid mixture 2, Wavelength=623.8 nm, x1 = 0.155 | 1.4204 ± 0.0003
307.52 K, Liquid mixture 2, Wavelength=623.8 nm, x1 = 0.162 | 1.4205 ± 0.0003 and 1.4205 ± 0.0005
307.53 K, Liquid mixture 1, Wavelength=623.8 nm, x1 = 0.111 | 1.4197 ± 0.0003
307.53 K, Liquid mixture 1, Wavelength=623.8 nm, x1 = 0.117 | 1.4198 ± 0.0003 and 1.4198 ± 0.0004
307.53 K, Liquid mixture 2, Wavelength=623.8 nm, x1 = 0.149 | 1.4203 ± 0.0003
307.53 K, Liquid mixture 2, Wavelength=623.8 nm, x1 = 0.155 | 1.4204 ± 0.0003

85 kPa, Liquid, Wavelength=632.8 nm, Minimum Deviation
Settings | refractive index
301.61 K, x1 = 0.7 | 1.4285 ± 0.0003
302.37 K, x1 = 0.8 | 1.429 ± 0.0003
302.37 K, x1 = 0.898 | 1.4299 ± 0.0003
303.54 K, x1 = 0.7 | 1.4279 ± 0.0003
303.94 K, x1 = 0.898 | 1.4295 ± 0.0003
303.98 K, x1 = 0.8 | 1.4286 ± 0.0003
305.36 K, x1 = 0.7 | 1.4274 ± 0.0003
305.43 K, x1 = 0.898 | 1.4291 ± 0.0003
305.58 K, x1 = 0.5 | 1.4254 ± 0.0003
305.64 K, x1 = 0.8 | 1.4282 ± 0.0003
306.75 K, x1 = 0.6 | 1.4262 ± 0.0003
307.04 K, x1 = 0.7 | 1.4269 ± 0.0003
307.1 K, x1 = 0.8 | 1.4278 ± 0.0003
307.12 K, x1 = 0.898 | 1.4286 ± 0.0003
307.21 K, x1 = 0.5 | 1.4249 ± 0.0003
307.74 K, x1 = 0.2 | 1.421 ± 0.0003
307.74 K, x1 = 0.3 | 1.4225 ± 0.0003
308 K, x1 = 0.399 | 1.4235 ± 0.0003
308.01 K, x1 = 0.1 | 1.4195 ± 0.0003
308.5 K, x1 = 0.7 | 1.4265 ± 0.0003
308.52 K, x1 = 0.6 | 1.4256 ± 0.0003
308.6 K, x1 = 0.5 | 1.4245 ± 0.0003
308.63 K, x1 = 0.8 | 1.4274 ± 0.0003
309.13 K, x1 = 0.3 | 1.422 ± 0.001
309.27 K, x1 = 0.898 | 1.428 ± 0.0003
309.33 K, x1 = 0.2 | 1.4204 ± 0.0003
309.52 K, x1 = 0.1 | 1.4189 ± 0.0003
309.56 K, x1 = 0.399 | 1.423 ± 0.001
310.16 K, x1 = 0.5 | 1.424 ± 0.0003
310.34 K, x1 = 0.7 | 1.426 ± 0.0003
310.34 K, x1 = 0.8 | 1.4269 ± 0.0003
310.75 K, x1 = 0.3 | 1.4214 ± 0.0003
310.81 K, x1 = 0.6 | 1.4249 ± 0.0003
310.88 K, x1 = 0.2 | 1.4199 ± 0.0003
311.04 K, x1 = 0.1 | 1.4183 ± 0.0003
311.13 K, x1 = 0.399 | 1.4225 ± 0.0003
311.28 K, x1 = 0.898 | 1.4274 ± 0.0003
311.69 K, x1 = 0.5 | 1.4235 ± 0.0003
312.29 K, x1 = 0.3 | 1.4209 ± 0.0003
312.54 K, x1 = 0.2 | 1.4193 ± 0.0003
312.58 K, x1 = 0.1 | 1.4178 ± 0.0003
312.73 K, x1 = 0.6 | 1.4243 ± 0.0003
313.03 K, x1 = 0.399 | 1.4219 ± 0.0003
313.17 K, x1 = 0.5 | 1.4231 ± 0.0003
313.86 K, x1 = 0.3 | 1.4204 ± 0.0003
314.02 K, x1 = 0.2 | 1.4188 ± 0.0003
314.06 K, x1 = 0.1 | 1.4172 ± 0.0003
314.31 K, x1 = 0.399 | 1.4214 ± 0.0003
314.64 K, x1 = 0.6 | 1.4237 ± 0.0003
315.45 K, x1 = 0.3 | 1.4198 ± 0.0003
315.63 K, x1 = 0.1 | 1.4166 ± 0.0003
315.63 K, x1 = 0.2 | 1.4183 ± 0.0003
316.32 K, x1 = 0.399 | 1.4208 ± 0.0003
316.32 K, x1 = 0.6 | 1.4232 ± 0.0003
